Test results published in patent US11369615B2, “Agent for improving mitochondrial dysfunction, preventative or therapeutic agent for diseases or symptoms caused by mitochondrial dysfunction, and applications therefor” (JICHI MEDICAL UNIVERSITY, priority 2017, dated 2022).

Legend:
[1] = tested on: Promo 1 cells as normal cells; assay: Tolerance to oxidative stress by BSO, Promo1 normal cells; format: cell-based, human; conditions: Promo 1 normal cells; concentration range of 1 to 1000 μM
Experimental: (§1) The oxidative stress test is a known pharmaceutical agent screening method, which was carried out under the conditions where cell death was induced by addition of L-buthionine-(S,R)-sulfoximine (BSO) (Arce P M et al., ACS Med Chem Lett., May 31, 2011, Vol. 2 (8), p. 608-13, doi: 10.1021/m1200095w. eCollection, Aug. 11, 2011, PubMed PMID: 24900356; PubMed Central PMCID: PMC4018135). BSO inhibits synthesis of glutathione serving as an antioxidant in the cells to deplete glutathione, raising the level of active oxygen within the cells. The procedure of the test is as follows. The cells to be used in the test were seeded in a 96-well plate for cell culture so as to satisfy a concentration of 5,000 cells/well and 80 μL medium/well and cultured in a CO2 incubator (37° C., 5% CO2) for 24 hours. Twenty four hours after the culture, BSO and each of the pharmaceutical agents (final concentration of 1 μM) of the drug library were together added to the cells within the wells. Forty eight hours after the addition, survival rates were determined. The survival rates were determined by measuring absorbance of formazan generated by use of cell count reagent SF (Nacalai Tesque, Inc.). As a positive control compound, idebenone (Non Patent Literature 1) approved as a therapeutic agent for Leber's hereditary optic neuritis in Europe, was used in the same concentration. […]

[2] = tested on: ME54 cells derived from a patient with Leigh syndrome; assay: Tolerance to oxidative stress by BSO, ME54 cells; format: cell-based, human
Experimental: as §1

CCCCS(=N)(=O)CCC(N)C(=O)O [BSO, L-buthionine-(S,R)-sulfoximine]
difference in survival rates [1]: no significant difference
concentration at which the survival rate significantly decreased [2]: ≥ 50 µM
